# Experimental data reported in patent publication US10538555B2, “Macrocyclic inhibitors of the PD-1/PD-L1 and CD80(B7-1)/PD-L1 protein/protein interactions” (BRISTOL-MYERS SQUIBB COMPANY, priority 2014, dated 2020).
# *1 amine or outer side, *2 acyl side, *3 side chain or, on linkers, in order; H or OH if unused. Where a SMILES comes first, the peptide text is derived from it. Bridges are numbered along the chain shown (N, C = ends). [ ]: non-standard residue; d: D form. ξ: configuration not given here. X5 = O=C(O)CC[C@H](N[*:1])C(=O)C1C[C@H](O)C[C@H]1C(=O)[*:2]; Phe(3,4,5-F3) = N[C@@H](Cc1cc(F)c(F)c(F)c1)C(=O)O; Phe(3,4-F2) = N[C@@H](Cc1ccc(F)c(F)c1)C(=O)O; NMePhe(4-F) = CN[C@@H](Cc1ccc(F)cc1)C(=O)O; Phe(4-CN) = N#Cc1ccc(C[C@H](N)C(=O)O)cc1; Phe(4-F) = N[C@@H](Cc1ccc(F)cc1)C(=O)O; d(cisHyp) = O=C(O)[C@H]1C[C@@H](O)CN1; Bta = N[C@@H](Cc1csc2ccccc12)C(=O)O; NMeIle(3ξ) = CCC(C)[C@H](NC)C(=O)O; Hyp = O=C(O)[C@@H]1C[C@@H](O)CN1; NMeF = CN[C@@H](Cc1ccccc1)C(=O)O; NMeNle = CCCC[C@H](NC)C(=O)O; NMeS = CN[C@@H](CO)C(=O)O; Pip = O=C(O)[C@@H]1CCCCN1; dPip = O=C(O)[C@H]1CCCCN1; hSer = N[C@@H](CCO)C(=O)O; NMeA = CN[C@@H](C)C(=O)O; Orn = NCCC[C@H](N)C(=O)O; Dab = NCC[C@H](N)C(=O)O; Dap = NC[C@H](N)C(=O)O; ξC = NC(CS)C(=O)O; Sar = CNCC(=O)O
# Target: T1, Human PD-L1/PD-1 (Homo sapiens, UniProt Q9NZQ7)
# T1 construct: TVMV protease cleavage site (C); made in house; host or cells: HEK293T cells
# Test: HTRF Human PD-L1/PD-1 binding assay (PD-1-Ig/PD-L1-His)
# Details: PD-L1-His 10 nM, PD-1-Ig 20 nM; class symbol; read-out: HTRF Human PD-L1/PD-1 Binding Assay IC50 Range
# How it was run: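 Inhibitors were preincubated 15 min with human PD-L1(18-239)-His (10 nM final), then PD-1(25-167)-Ig (20 nM final) was added for 15 min in dPBS/0.1% BSA/0.05% Tween-20. Eu-cryptate anti-Ig (1 nM) and APC anti-His (20 nM) were added; 665/620 nm ratio read after 30 min.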
# T1 sequence (Q9NZQ7 with tags, fused parts or gaps): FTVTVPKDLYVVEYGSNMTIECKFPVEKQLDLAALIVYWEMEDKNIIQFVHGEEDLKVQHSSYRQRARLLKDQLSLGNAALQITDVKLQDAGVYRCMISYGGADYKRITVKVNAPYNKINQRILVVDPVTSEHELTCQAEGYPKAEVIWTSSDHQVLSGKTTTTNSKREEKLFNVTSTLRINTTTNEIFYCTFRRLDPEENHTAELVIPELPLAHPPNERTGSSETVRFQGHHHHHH
row,Structure (SMILES),IC50 [µM]
1,CCCC[C@H]1C(=O)N(C)[C@@H](CCCC)C(=O)N[C@@H](CCCNC(=N)N)C(=O)N[C@H](C(=O)NCC(N)=O)CSCC(=O)N[C@@H](Cc2ccc(C#N)cc2)C(=O)N(C)[C@@H](C)C(=O)N[C@@H](CC(N)=O)C(=O)N2CCC[C@H]2C(=O)N[C@@H](Cc2cnc[nH]2)C(=O)N[C@@H](CCC(=O)O)C(=O)C2C[C@H](O)C[C@H]2C(=O)N[C@@H](Cc2c[nH]c3ccccc23)C(=O)N[C@@H](CCN)C(=O)N[C@@H](Cc2c[nH]c3ccccc23)C(=O)N1C (stereo partly drawn) [Example 7077] ({CH2CO}-[Phe(4-CN)][NMeA]NPH[X5]W[Dab]W[NMeNle][NMeNle]RCG-NH2; thioether N-13),0.001 to 0.0099
2,CCCC[C@H]1C(=O)N(C)[C@@H](CO)C(=O)N[C@@H](CCC(=O)O)C(=O)N[C@H](C(=O)NCC(N)=O)CSCC(=O)N[C@@H](Cc2ccc(O)cc2)C(=O)N2CCCC[C@H]2C(=O)N[C@@H](CC(=O)O)C(=O)N2CCC[C@H]2C(=O)N[C@@H](CN)C(=O)N[C@@H](CCC(=O)O)C(=O)N2C[C@H](O)C[C@H]2C(=O)N[C@@H](Cc2c[nH]c3ccccc23)C(=O)N[C@@H](CO)C(=O)N[C@@H](Cc2c[nH]c3ccccc23)C(=O)N1C [Example 1309] ({CH2CO}-Y[Pip]DP[Dap]E[Hyp]WSW[NMeNle][NMeS]ECG-NH2; thioether N-14),0.01 to 0.0999
3,CCCC[C@H]1C(=O)N(C)[C@@H](CCCC)C(=O)N[C@@H](CCC(=O)O)C(=O)N[C@H](C(=O)NCC(N)=O)CSCC(=O)N[C@@H](Cc2ccc(O)cc2)C(=O)N(C)[C@@H](C)C(=O)N[C@@H](CC(N)=O)C(=O)N2CCC[C@H]2C(=O)N[C@@H](CO)C(=O)N[C@@H](CC(C)C)C(=O)N2C[C@H](O)C[C@H]2C(=O)N[C@@H](Cc2c[nH]c3ccccc23)C(=O)N[C@@H](CCN)C(=O)N[C@@H](Cc2c[nH]c3ccccc23)C(=O)N1C [Example 5247] ({CH2CO}-Y[NMeA]NPSL[Hyp]W[Dab]W[NMeNle][NMeNle]ECG-NH2; thioether N-14),0.001 to 0.0099
4,CCCC[C@H]1C(=O)N(C)[C@@H](CCCC)C(=O)N[C@@H](CCCNC(=N)N)C(=O)N[C@H](C(=O)NCC(N)=O)CSCC(=O)N[C@@H](Cc2ccc(OC)cc2)C(=O)N(C)[C@@H](C)C(=O)N[C@@H](CC(N)=O)C(=O)N2CCC[C@H]2C(=O)N[C@@H](Cc2cnc[nH]2)C(=O)N[C@@H](CCC(=O)O)C(=O)C2C[C@H](O)C[C@H]2C(=O)N[C@@H](Cc2c[nH]c3ccccc23)C(=O)N[C@@H](CCN)C(=O)N[C@@H](Cc2c[nH]c3ccccc23)C(=O)N1C (stereo partly drawn) [Example 7085] ({CH2CO}-Y(Me)[NMeA]NPH[X5]W[Dab]W[NMeNle][NMeNle]RCG-NH2; thioether N-13),0.001 to 0.0099
5,CCCC[C@H]1C(=O)N(C)[C@@H](CCCC)C(=O)N[C@@H](CN)C(=O)N[C@H](C(=O)NCC(N)=O)CSCC(=O)N[C@@H](Cc2ccc(O)cc2)C(=O)N(C)[C@@H](C)C(=O)N[C@@H](CC(=O)O)C(=O)N2CCC[C@H]2C(=O)N[C@@H](Cc2c[nH]cn2)C(=O)N[C@@H](CCC(=O)O)C(=O)N2C[C@H](O)C[C@H]2C(=O)N[C@@H](Cc2c[nH]c3ccccc23)C(=O)N[C@@H](CCN)C(=O)N[C@@H](Cc2cn(CC(=O)O)c3ccccc23)C(=O)N1C [Example 5220],0.1 to 0.99
6,CCCC[C@H]1C(=O)N(C)[C@@H](CCCC)C(=O)N[C@@H](CCC(=O)O)C(=O)NC(C(=O)NCC(N)=O)CSCC(=O)N[C@@H](Cc2ccc(O)cc2)C(=O)N(C)[C@@H](C)C(=O)N[C@@H](CC(N)=O)C(=O)N2CCC[C@H]2C(=O)N[C@@H](Cc2c[nH]cn2)C(=O)N[C@@H](CC(N)=O)C(=O)N2CCC[C@H]2C(=O)N[C@@H](Cc2c[nH]c3ccccc23)C(=O)N[C@@H](CCO)C(=O)N[C@@H](Cc2c[nH]c3ccccc23)C(=O)N1C (stereo partly drawn) [Example 9186] ({CH2CO}-Y[NMeA]NPHNPW[hSer]W[NMeNle][NMeNle]E[ξC]G-NH2; thioether N-14),0.01 to 0.0999
7,CCCC[C@H]1C(=O)N2CCC[C@@H]2C(=O)N[C@@H](CC(=O)O)C(=O)N[C@@H](C(C)C)C(=O)N(C)[C@@H](C(C)CC)C(=O)N[C@@H](CCC(N)=O)C(=O)N2CCC[C@@H]2C(=O)N[C@@H](Cc2c[nH]c3ccccc23)C(=O)N[C@@H](Cc2ccc(O)cc2)C(=O)N[C@@H](CC(C)C)C(=O)N[C@H](C(=O)NCC(N)=O)CSCC(=O)N[C@@H](Cc2ccc(F)cc2)C(=O)N(C)[C@@H](Cc2ccccc2)C(=O)N1C (stereo partly drawn) [Example 9260] ({CH2CO}-[Phe(4-F)][NMeF][NMeNle][dP]DV[NMeIle(3ξ)]Q[dP]WYLCG-NH2; thioether N-13),1 to 10

# Results, then the compound that gave them:
row,IC50 [µM],Structure (SMILES)
1,0.01 to 0.0999,CCCC[C@H]1C(=O)N2CCC[C@@H]2C(=O)N[C@@H](CC(=O)O)C(=O)N[C@@H](C(C)C)C(=O)N(C)[C@@H](Cc2ccc(F)cc2)C(=O)N[C@@H](CCN)C(=O)N2CCC[C@@H]2C(=O)N[C@@H](Cc2c[nH]c3ccccc23)C(=O)N[C@@H](Cc2ccc(O)cc2)C(=O)N[C@@H](CC(C)C)C(=O)N[C@H](C(=O)NCC(N)=O)CSCC(=O)N[C@@H](Cc2ccc(F)cc2)C(=O)N(C)[C@@H](Cc2ccccc2)C(=O)N1C [Example 10109] ({CH2CO}-[Phe(4-F)][NMeF][NMeNle][dP]DV[NMePhe(4-F)][Dab][dP]WYLCG-NH2; thioether N-13)
2,0.01 to 0.0999,CCCC[C@H]1C(=O)N2CCC[C@@H]2C(=O)N[C@@H](CC(=O)O)C(=O)N[C@@H](C)C(=O)N(C)[C@@H](Cc2ccccc2)C(=O)N[C@@H](Cc2ccc(O)cc2)C(=O)N2CCC[C@@H]2C(=O)N[C@@H](Cc2c[nH]c3ccccc23)C(=O)N[C@@H](Cc2ccc(O)cc2)C(=O)N[C@@H](CC(C)C)C(=O)N[C@H](C(=O)NCC(N)=O)CSCC(=O)N[C@@H](Cc2ccccc2)C(=O)N(C)[C@@H](Cc2ccccc2)C(=O)N1C [Example 10076] ({CH2CO}-F[NMeF][NMeNle][dP]DA[NMeF]Y[dP]WYLCG-NH2; thioether N-13)
3,0.01 to 0.0999,CCCC[C@H]1C(=O)N(C)[C@@H](CCCC)C(=O)N[C@@H](CCCNC(=N)N)C(=O)NC(C(=O)NCC(N)=O)CSCC(=O)N[C@@H](Cc2ccc(O)cc2)C(=O)N(C)[C@@H](C)C(=O)N[C@@H](CC(N)=O)C(=O)N2CCC[C@H]2C(=O)N[C@@H](CO)C(=O)N[C@@H](CO)C(=O)N2C[C@H](O)C[C@H]2C(=O)N[C@@H](Cc2c[nH]c3ccccc23)C(=O)N[C@@H](CO)C(=O)N[C@@H](Cc2csc3ccccc23)C(=O)N1C (stereo partly drawn) [Example 10016] ({CH2CO}-Y[NMeA]NPSS[Hyp]WS[Bta][NMeNle][NMeNle]R[ξC]G-NH2; thioether N-14)
4,0.01 to 0.0999,"CCCC[C@H]1C(=O)N2C[C@H](O)C[C@@H]2C(=O)N[C@@H](CC(=O)O)C(=O)N[C@@H](C(C)C)C(=O)N(C)[C@@H](Cc2ccccc2)C(=O)N[C@@H](Cc2ccc(O)cc2)C(=O)N2C[C@H](O)C[C@@H]2C(=O)N[C@@H](Cc2c[nH]c3ccccc23)C(=O)N[C@@H](Cc2ccc(O)cc2)C(=O)N[C@@H](CCC(N)=O)C(=O)N[C@H](C(=O)NCC(N)=O)CSCC(=O)N[C@@H](Cc2cc(F)c(F)c(F)c2)C(=O)N(C)[C@@H](Cc2ccccc2)C(=O)N1C [Example 9328] ({CH2CO}-[Phe(3,4,5-F3)][NMeF][NMeNle][d(cisHyp)]DV[NMeF]Y[d(cisHyp)]WYQCG-NH2; thioether N-13)"
5,0.001 to 0.0099,"CCCC[C@H]1C(=O)N2C[C@H](O)C[C@@H]2C(=O)N[C@@H](CC(=O)O)C(=O)N[C@@H](C(C)C)C(=O)N(C)[C@@H](Cc2ccccc2)C(=O)N[C@@H](CCCN)C(=O)N2C[C@H](O)C[C@@H]2C(=O)N[C@@H](Cc2c[nH]c3ccccc23)C(=O)N[C@@H](Cc2ccc(O)cc2)C(=O)N[C@@H](CC(C)C)C(=O)N[C@H](C(=O)NCC(N)=O)CSCC(=O)N[C@@H](Cc2ccc(F)c(F)c2)C(=O)N(C)[C@@H](Cc2ccccc2)C(=O)N1C [Example 9296] ({CH2CO}-[Phe(3,4-F2)][NMeF][NMeNle][d(cisHyp)]DV[NMeF][Orn][d(cisHyp)]WYLCG-NH2; thioether N-13)"
6,0.001 to 0.0099,"CCCC[C@H]1C(=O)N2C[C@H](O)C[C@@H]2C(=O)N[C@@H](CC(=O)O)C(=O)N[C@@H](C(C)C)C(=O)N(C)[C@@H](Cc2ccccc2)C(=O)N[C@@H](CC(=O)O)C(=O)N2C[C@H](O)C[C@@H]2C(=O)N[C@@H](Cc2c[nH]c3ccccc23)C(=O)N[C@@H](Cc2ccc(O)cc2)C(=O)N[C@@H](CCC(=O)O)C(=O)N[C@H](C(=O)NCC(N)=O)CSCC(=O)N[C@@H](Cc2ccc(F)c(F)c2)C(=O)N(C)[C@@H](Cc2ccccc2)C(=O)N1C [Example 9314] ({CH2CO}-[Phe(3,4-F2)][NMeF][NMeNle][d(cisHyp)]DV[NMeF]D[d(cisHyp)]WYECG-NH2; thioether N-13)"
7,0.1 to 0.99,CCCC[C@H]1C(=O)N2CCCC[C@@H]2C(=O)N[C@@H](CC(=O)O)C(=O)N[C@@H](C)C(=O)N(C)[C@@H](Cc2ccccc2)C(=O)N[C@@H](Cc2ccc(O)cc2)C(=O)N(C)CC(=O)N[C@@H](Cc2c[nH]c3ccccc23)C(=O)N[C@@H](Cc2ccc(O)cc2)C(=O)N[C@@H](CC(C)C)C(=O)N[C@H](C(=O)NCC(N)=O)CSCC(=O)N[C@@H](Cc2ccccc2)C(=O)N(C)[C@@H](Cc2ccccc2)C(=O)N1C [Example 10084] ({CH2CO}-F[NMeF][NMeNle][dPip]DA[NMeF]Y[Sar]WYLCG-NH2; thioether N-13)

# Same assay, conditions: PD-L1-His 10 nM, PD-1-Ig 20 nM; read-out: HTRF Human PD-L1/PD-1 Binding Assay IC50
row,IC50 [µM],Structure (SMILES)
1,0.0056,CCCC[C@H]1C(=O)N(C)[C@@H](CCCC)C(=O)N[C@@H](CC(C)C)C(=O)N[C@H](C(=O)NCC(N)=O)CSCC(=O)N[C@@H](Cc2ccc(OC)cc2)C(=O)N(C)[C@@H](C)C(=O)N[C@@H](CC(N)=O)C(=O)N2CCC[C@H]2C(=O)N[C@@H](Cc2c[nH]cn2)C(=O)N[C@@H](CCC(N)=O)C(=O)N2C[C@H](O)C[C@H]2C(=O)N[C@@H](Cc2c[nH]c3ccccc23)C(=O)N[C@@H](CO)C(=O)N[C@@H](Cc2c[nH]c3ccccc23)C(=O)N1C [Example 7135] ({CH2CO}-Y(Me)[NMeA]NPHQ[Hyp]WSW[NMeNle][NMeNle]LCG-NH2; thioether N-14)
